# Measurements taken from PubChem BioAssay (NCI).
# Several values for one entry are separate records, joined by “and”; a condition that tells them apart may be missing. Equal values may be shown once.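 Where inhibition never reached the appropriate level, the endpoint shown equals the highest concentration tested. Otherwise, values were interpolated linearly from a five-concentration, 48-hour dose response in 96-well plates. GI50 marks 50% less growth. At the TGI there is no net growth.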 Where a SMILES comes first, the peptide text is derived from it. [ ]: non-standard residue; d: D form. The star is where a group is joined. ξ: configuration not given here. Cbz = O=C(OCc1ccccc1)*; ξK = NCCCCC(N)C(=O)O
# Assays:
# Test in all cases: inhibition of tumour cell growth, NCI panel, 48 h
# 786-0 renal = tested on: 786-0 renal
# A498 renal = tested on: A498 renal
# A549 NSCLC = tested on: A549 NSCLC
# ACHN renal = tested on: ACHN renal
# CAKI-1 renal = tested on: CAKI-1 renal
# CCRF-CEM leukemia = tested on: CCRF-CEM leukemia
# COLO 205 colon = tested on: COLO 205 colon
# DU-145 prostate = tested on: DU-145 prostate
# EKVX NSCLC = tested on: EKVX NSCLC
# HCC-2998 colon = tested on: HCC-2998 colon
# HCT-116 colon = tested on: HCT-116 colon
# HCT-15 colon = tested on: HCT-15 colon
# HOP-62 NSCLC = tested on: HOP-62 NSCLC
# HOP-92 NSCLC = tested on: HOP-92 NSCLC
# HS 578T breast = tested on: HS 578T breast
# HT29 colon = tested on: HT29 colon
# IGROV1 ovarian = tested on: IGROV1 ovarian
# K-562 leukemia = tested on: K-562 leukemia
# KM12 colon = tested on: KM12 colon
# LOX IMVI melanoma = tested on: LOX IMVI melanoma
# M14 melanoma = tested on: M14 melanoma
# MALME-3M melanoma = tested on: MALME-3M melanoma
# MCF7 breast = tested on: MCF7 breast
# MDA-MB-231 breast = tested on: MDA-MB-231 breast
# MDA-MB-435 = tested on: MDA-MB-435
# MDA-N = tested on: MDA-N
# MOLT-4 leukemia = tested on: MOLT-4 leukemia
# NCI-H226 lung = tested on: NCI-H226 lung
# NCI-H23 lung = tested on: NCI-H23 lung
# NCI-H460 lung = tested on: NCI-H460 lung
# NCI-H522 lung = tested on: NCI-H522 lung
# NCI/ADR-RES ovarian = tested on: NCI/ADR-RES ovarian
# OVCAR-3 ovarian = tested on: OVCAR-3 ovarian
# OVCAR-4 ovarian = tested on: OVCAR-4 ovarian
# OVCAR-5 ovarian = tested on: OVCAR-5 ovarian
# OVCAR-8 ovarian = tested on: OVCAR-8 ovarian
# PC-3 prostate = tested on: PC-3 prostate
# RPMI-8226 leukemia = tested on: RPMI-8226 leukemia
# RXF 393 renal = tested on: RXF 393 renal
# SF-268 CNS = tested on: SF-268 CNS
# SF-295 CNS = tested on: SF-295 CNS
# SF-539 CNS = tested on: SF-539 CNS
# SK-MEL-2 melanoma = tested on: SK-MEL-2 melanoma
# SK-MEL-28 melanoma = tested on: SK-MEL-28 melanoma
# SK-MEL-5 melanoma = tested on: SK-MEL-5 melanoma
# SK-OV-3 ovarian = tested on: SK-OV-3 ovarian
# SN12C renal = tested on: SN12C renal
# SNB-19 CNS = tested on: SNB-19 CNS
# SNB-75 CNS = tested on: SNB-75 CNS
# SR leukemia = tested on: SR leukemia
# SW-620 colon = tested on: SW-620 colon
# T-47D breast = tested on: T-47D breast
# U251 CNS = tested on: U251 CNS
# UACC-257 melanoma = tested on: UACC-257 melanoma
# UACC-62 melanoma = tested on: UACC-62 melanoma
# UO-31 renal = tested on: UO-31 renal
# BT-549 breast = tested on: BT-549 breast
# HL-60(TB) leukemia = tested on: HL-60(TB) leukemia
# TK-10 renal = tested on: TK-10 renal
structure (smiles),measurement,setting,value
NCCCCC(NC(=O)OCc1ccccc1)C(=O)NCC(N)=O (centres undefined) (Cbz-[ξK]-Gly-NH2),TGI,786-0 renal,> 100 µM
same,TGI,A498 renal,> 100 µM
same,TGI,A549 NSCLC,> 100 µM
same,TGI,ACHN renal,> 100 µM
same,TGI,CAKI-1 renal,> 100 µM
same,TGI,CCRF-CEM leukemia,> 100 µM
same,TGI,COLO 205 colon,> 100 µM
same,TGI,DU-145 prostate,> 100 µM
same,TGI,EKVX NSCLC,> 100 µM
same,TGI,HCC-2998 colon,> 100 µM
same,TGI,HCT-116 colon,> 100 µM
same,TGI,HCT-15 colon,> 100 µM
same,TGI,HOP-62 NSCLC,> 100 µM
same,TGI,HOP-92 NSCLC,> 100 µM
same,TGI,HS 578T breast,> 100 µM
same,TGI,HT29 colon,> 100 µM
same,TGI,IGROV1 ovarian,> 100 µM
same,TGI,K-562 leukemia,> 100 µM
same,TGI,KM12 colon,> 100 µM
same,TGI,LOX IMVI melanoma,> 100 µM
same,TGI,M14 melanoma,> 100 µM
same,TGI,MALME-3M melanoma,> 100 µM
same,TGI,MCF7 breast,> 100 µM
same,TGI,MDA-MB-231 breast,> 100 µM
same,TGI,MDA-MB-435,> 100 µM
same,TGI,MDA-N,> 100 µM
same,TGI,MOLT-4 leukemia,> 100 µM
same,TGI,NCI-H226 lung,> 100 µM
same,TGI,NCI-H23 lung,> 100 µM
same,TGI,NCI-H460 lung,> 100 µM
same,TGI,NCI-H522 lung,> 100 µM
same,TGI,NCI/ADR-RES ovarian,> 100 µM
same,TGI,OVCAR-3 ovarian,> 100 µM
same,TGI,OVCAR-4 ovarian,> 100 µM
same,TGI,OVCAR-5 ovarian,> 100 µM
same,TGI,OVCAR-8 ovarian,> 100 µM
same,TGI,PC-3 prostate,> 100 µM
same,TGI,RPMI-8226 leukemia,> 100 µM
same,TGI,RXF 393 renal,> 100 µM
same,TGI,SF-268 CNS,> 100 µM
same,TGI,SF-295 CNS,> 100 µM
same,TGI,SF-539 CNS,> 100 µM
same,TGI,SK-MEL-2 melanoma,> 100 µM
same,TGI,SK-MEL-28 melanoma,> 100 µM
same,TGI,SK-MEL-5 melanoma,> 100 µM
same,TGI,SK-OV-3 ovarian,> 100 µM
same,TGI,SN12C renal,> 100 µM
same,TGI,SNB-19 CNS,> 100 µM
same,TGI,SNB-75 CNS,> 100 µM
same,TGI,SR leukemia,> 100 µM
same,TGI,SW-620 colon,> 100 µM
same,TGI,T-47D breast,> 100 µM
same,TGI,U251 CNS,> 100 µM
same,TGI,UACC-257 melanoma,> 100 µM
same,TGI,UACC-62 melanoma,> 100 µM
same,TGI,UO-31 renal,> 100 µM
COc1ccc2[nH]c3c(C)c4ccnc(NCCCN(C)CCCNc5ccc6nnn7c8ccccc8c(=O)c5c67)c4c(C)c3c2c1,TGI,786-0 renal,1.69 µM
same,TGI,A498 renal,2.88 µM
same,TGI,A549 NSCLC,1.06 µM
same,GI50,ACHN renal,0.136 µM
same,TGI,ACHN renal,1.29 µM and 1.55 µM
same,TGI,BT-549 breast,3.51 µM
same,TGI,CAKI-1 renal,2.27 µM
same,TGI,CCRF-CEM leukemia,5.51 µM
same,TGI,COLO 205 colon,3.53 µM
same,TGI,EKVX NSCLC,2.17 µM
same,TGI,HCC-2998 colon,1.44 µM
same,TGI,HCT-116 colon,1.14 µM
same,TGI,HCT-15 colon,1.57 µM
same,TGI,HL-60(TB) leukemia,1.21 µM
same,TGI,HOP-62 NSCLC,2.05 µM
same,TGI,HS 578T breast,3.91 µM
same,TGI,HT29 colon,1.36 µM
same,TGI,IGROV1 ovarian,1.8 µM
same,GI50,KM12 colon,0.818 µM
same,TGI,KM12 colon,1.8 µM and 2.33 µM
same,TGI,LOX IMVI melanoma,1.62 µM
same,TGI,M14 melanoma,2.13 µM
same,TGI,MCF7 breast,1.25 µM
same,TGI,MDA-MB-231 breast,3.19 µM
same,TGI,MDA-MB-435,1.75 µM
same,TGI,MDA-N,2.09 µM
same,TGI,MOLT-4 leukemia,0.132 µM
same,TGI,NCI-H23 lung,2.04 µM
same,TGI,NCI-H460 lung,0.492 µM
same,TGI,NCI-H522 lung,1.67 µM
same,TGI,NCI/ADR-RES ovarian,2.69 µM
same,TGI,OVCAR-3 ovarian,2.4 µM
same,TGI,OVCAR-4 ovarian,4.72 µM
same,TGI,OVCAR-5 ovarian,2.73 µM
same,TGI,OVCAR-8 ovarian,2.13 µM
same,TGI,PC-3 prostate,1.91 µM
same,TGI,RPMI-8226 leukemia,2.19 µM
same,TGI,RXF 393 renal,2.57 µM
same,GI50,SF-268 CNS,0.209 µM
same,TGI,SF-268 CNS,2.51 µM and 3.14 µM
same,TGI,SF-295 CNS,1.44 µM
same,TGI,SF-539 CNS,1.38 µM
same,GI50,SK-MEL-28 melanoma,3.45 µM
same,GI50,SK-OV-3 ovarian,3.29 µM
same,TGI,SK-OV-3 ovarian,> 100 µM
same,GI50,SN12C renal,0.294 µM
same,TGI,SN12C renal,1.99 µM and 1.67 µM
same,TGI,SNB-19 CNS,2.42 µM
same,GI50,SNB-75 CNS,1.41 µM
same,TGI,SNB-75 CNS,2.17 µM and 2.86 µM
same,TGI,SR leukemia,> 100 µM
same,TGI,SW-620 colon,1.16 µM
same,TGI,T-47D breast,6.94 µM
same,TGI,TK-10 renal,2.38 µM
same,TGI,U251 CNS,1.67 µM
same,TGI,UACC-257 melanoma,4.75 µM
same,GI50,UO-31 renal,1.29 µM
same,TGI,UO-31 renal,2.61 µM and 2.76 µM
